Reference: ChEMBL document CHEMBL1139561, “Biaryl isoxazolinone antibacterial agents” (Bioorg Med Chem Lett, 2005)
Values after ≈ are worked out from the molar mass of the structure shown. Blank lines part the entries; values can stand above or below the molecule they belong to.

What was measured:
Haemophilus influenzae = assay: Minimum inhibition concentration against Haemophilus influenzae strains; assay type: functional
Staphylococcus aureus [1] = assay: Minimum inhibition concentration against Staphylococcus aureus strains in presence of 4% calf serum; assay type: functional
Staphylococcus aureus [2] = assay: Minimum inhibition concentration against Staphylococcus aureus strains in presence of 1% calf serum; assay type: functional
Staphylococcus aureus [3] = assay: Minimum inhibition concentration against Staphylococcus aureus strains in presence of 32% calf serum; assay type: functional
Staphylococcus aureus [4] = assay: Minimum inhibition concentration against Staphylococcus aureus strains in presence of 8% calf serum; assay type: functional
[5] = Maximum serum concentration in mouse was determined; assay type: ADME, organism-based
[6] = Half life for compound in mouse was determined; assay type: ADME; conditions: in vivo
[7] = Maximum serum concentration in rat was determined; assay type: ADME, organism-based
Staphylococcus aureus [8] = assay: Minimum inhibition concentration against Staphylococcus aureus strains in presence of 0.5% calf serum; assay type: functional
[9] = Half life for compound in rat was determined; assay type: ADME; conditions: in vivo
[10] = Area under curve concentration in mouse was determined; assay type: ADME; conditions: in vivo
[11] = Protective dose against Staphylococcus aureus in mice after 8 days of oral b.i.d. administration at 1 and 5 hr per interval (n=10); assay type: functional; conditions: read-out: PD50
Staphylococcus aureus [12] = assay: Minimum inhibition concentration against Staphylococcus aureus strains in presence of 16% calf serum; assay type: functional
Staphylococcus aureus [13] = assay: Minimum inhibition concentration against Staphylococcus aureus strains in presence of 2% calf serum; assay type: functional
Staphylococcus aureus [14] = assay: Minimum inhibition concentration against Staphylococcus aureus strains in presence of 0.25% calf serum; assay type: functional
Staphylococcus aureus [15] = assay: Minimum inhibition concentration against Staphylococcus aureus strains in presence of >64% calf serum; assay type: functional

MIC (Haemophilus influenzae): 32 µg/mL (≈ 96.8 µM)
MIC (Staphylococcus aureus [1]): 1 µg/mL
Compound: CC(=O)NCn1cc(-c2ccc(C3=CCSCC3)cc2)c(=O)o1

MIC (Staphylococcus aureus [2]): 0.5 µg/mL
MIC (Haemophilus influenzae): 64 µg/mL (≈ 187 µM)
Compound: CC(=O)NCn1cc(-c2ccc(-c3sccc3C=O)cc2)c(=O)o1

MIC (Haemophilus influenzae): > 32 µg/mL
MIC (Staphylococcus aureus [3]): 1 µg/mL
MIC (Staphylococcus aureus [3]; Staphylococcus aureus): 1 µg/mL
Compound: CC(=O)NCn1cc(-c2ccc(-c3cccc4ccccc34)cc2)c(=O)o1

MIC (Staphylococcus aureus [2]): 0.25 µg/mL
MIC (Haemophilus influenzae): 4 µg/mL (≈ 12.7 µM)
Compound: CC(=O)NCn1cc(-c2ccc(C3=CCOCC3)cc2)c(=O)o1

Compound: CC(=O)NCn1cc(-c2ccc(C3=CCNCC3)cc2)c(=O)o1
MIC (Haemophilus influenzae): 16 µg/mL (≈ 51.1 µM)
MIC (Staphylococcus aureus [4]): 8 µg/mL

Compound: CC(=O)NCn1cc(-c2ccc(C3=CCN(C(=O)CO)CC3)cc2)c(=O)o1
Cmax [5]: 22900 ng/mL
half-life [6]: 23.5 min
Cmax [7]: 1900 ng/mL
MIC (Staphylococcus aureus [8]): 0.25 µg/mL
MIC (Haemophilus influenzae): 2 µg/mL (≈ 5.39 µM)
half-life [9]: 36 min
AUC [10]: 16.9 µg/h/mL
ED50 [11]: 4 mg/kg/day

MIC (Staphylococcus aureus [12]): 8 µg/mL
MIC (Haemophilus influenzae): 32 µg/mL (≈ 77 µM)
Compound: CC(=O)NCn1cc(-c2ccc(C3CCN(C(=O)OC(C)(C)C)CC3)cc2)c(=O)o1

MIC (Haemophilus influenzae): > 64 µg/mL
MIC (Staphylococcus aureus [3]; Staphylococcus aureus): 8 µg/mL
Compound: CC(=O)NCn1cc(-c2ccc(C3=CCN(C(=O)OC(C)(C)C)CC3)cc2)c(=O)o1

MIC (Staphylococcus aureus [12]): 32 µg/mL
MIC (Haemophilus influenzae): 32 µg/mL (≈ 101 µM)
Compound: CC(=O)NCn1cc(-c2ccc(C3CCNCC3)cc2)c(=O)o1

MIC (Haemophilus influenzae): 4 µg/mL (≈ 11.5 µM)
MIC (Staphylococcus aureus [4]): 0.06 µg/mL
Compound: CC(=O)NCn1cc(-c2ccc(-c3ccc(Cl)s3)cc2)c(=O)o1

Compound: CC(=O)NCn1cc(-c2ccc(C3CCN(C(=O)CO)CC3)cc2)c(=O)o1
MIC (Staphylococcus aureus [13]): 1 µg/mL
MIC (Haemophilus influenzae): 16 µg/mL (≈ 42.8 µM)
ED50 [11]: > 3.5 mg/kg/day

Compound: CC(=O)NCn1cc(-c2ccc(C3=CC[S+]([O-])CC3)cc2)c(=O)o1 (stereo unspecified)
Cmax [5]: 8300 ng/mL
half-life [6]: 22.2 min
MIC (Staphylococcus aureus [2]): 0.5 µg/mL
MIC (Haemophilus influenzae): 2 µg/mL (≈ 5.77 µM)
AUC [10]: 5.5 µg/h/mL
ED50 [11]: 5.6 mg/kg/day

MIC (Staphylococcus aureus [12]): 8 µg/mL
MIC (Haemophilus influenzae): 32 µg/mL (≈ 90 µM)
Compound: CC(=O)NCn1cc(-c2ccc(C3=CCN(C(=N)N)CC3)cc2)c(=O)o1

Compound: CC(=O)NCn1cc(-c2ccc(C3=CCS(=O)(=O)CC3)cc2)c(=O)o1
Cmax [5]: 17700 ng/mL
half-life [6]: 12.2 min
MIC (Staphylococcus aureus [2]): 0.5 µg/mL
MIC (Haemophilus influenzae): 4 µg/mL (≈ 11 µM)
AUC [10]: 19.4 µg/h/mL
ED50 [11]: 4 mg/kg/day

Compound: CC(=O)NCn1cc(-c2ccc(-c3cncnc3)cc2)c(=O)o1
Cmax [5]: 10400 ng/mL
half-life [6]: 103 min
MIC (Staphylococcus aureus [14]): 0.25 µg/mL
MIC (Haemophilus influenzae): 4 µg/mL (≈ 12.9 µM)
AUC [10]: 29.1 µg/h/mL
ED50 [11]: > 14.1 mg/kg/day

MIC (Haemophilus influenzae): 16 µg/mL (≈ 53.6 µM)
MIC (Staphylococcus aureus [3]; Staphylococcus aureus): 1 µg/mL
Compound: CC(=O)NCn1cc(-c2ccc(-c3ccco3)cc2)c(=O)o1

MIC (Staphylococcus aureus [13]): 1 µg/mL
MIC (Haemophilus influenzae): 8 µg/mL (≈ 24.7 µM)
Compound: CC(=O)NCn1cc(-c2ccc(-c3ccc(O)cc3)cc2)c(=O)o1

MIC (Haemophilus influenzae): 64 µg/mL (≈ 173 µM)
MIC (Staphylococcus aureus [15]): 32 µg/mL
Compound: CC(=O)NCn1cc(-c2ccc(-c3ccc(F)c(C(=O)O)c3)cc2)c(=O)o1

MIC (Haemophilus influenzae): > 64 µg/mL
MIC (Staphylococcus aureus [1]): 0.25 µg/mL
Compound: CC(=O)NCn1cc(-c2ccc(-c3cc(C)cs3)cc2)c(=O)o1

MIC (Haemophilus influenzae): 4 µg/mL (≈ 11.6 µM)
MIC (Staphylococcus aureus [1]): 0.125 µg/mL
Compound: CC(=O)NCn1cc(-c2ccc(-c3ccc(F)cc3F)cc2)c(=O)o1

Compound: CC(=O)NCn1cc(-c2ccc(-c3ccncc3)cc2)c(=O)o1
Cmax [5]: 17700 ng/mL
half-life [6]: 203 min
MIC (Staphylococcus aureus [8]): 0.06 µg/mL
MIC (Haemophilus influenzae): 2 µg/mL (≈ 6.47 µM)
AUC [10]: 56 µg/h/mL
ED50 [11]: 8.9 mg/kg/day

MIC (Staphylococcus aureus [2]): 0.06 µg/mL
MIC (Haemophilus influenzae): > 64 µg/mL
Compound: COc1cccc(-c2ccc(-c3cn(CNC(C)=O)oc3=O)cc2)c1

MIC (Staphylococcus aureus [12]): 0.5 µg/mL
MIC (Haemophilus influenzae): > 32 µg/mL
Compound: CC(=O)NCn1cc(-c2ccc(-c3ccc(OC(F)(F)F)cc3)cc2)c(=O)o1

MIC (Staphylococcus aureus [13]): 1 µg/mL
MIC (Haemophilus influenzae): 8 µg/mL (≈ 25.9 µM)
Compound: CC(=O)NCn1cc(-c2ccc(-c3ccccn3)cc2)c(=O)o1

MIC (Haemophilus influenzae): > 32 µg/mL
MIC (Staphylococcus aureus [4]): 2 µg/mL
Compound: COc1ccc(-c2ccc(-c3cn(CNC(C)=O)oc3=O)cc2)c(OC)c1

MIC (Haemophilus influenzae): 4 µg/mL (≈ 12.7 µM)
MIC (Staphylococcus aureus [1]): 0.5 µg/mL
Compound: CC(=O)NCn1cc(-c2ccc(-c3cncs3)cc2)c(=O)o1

Compound: CC(=O)NCn1cc(-c2ccc(-c3cccnc3)cc2)c(=O)o1
Cmax [5]: 15300 ng/mL
half-life [6]: 86.7 min
MIC (Haemophilus influenzae): 2 µg/mL (≈ 6.47 µM)
MIC (Staphylococcus aureus [1]): 0.5 µg/mL
AUC [10]: 41.1 µg/h/mL
ED50 [11]: 10 mg/kg/day

MIC (Haemophilus influenzae): > 64 µg/mL
MIC (Staphylococcus aureus [4]): 2 µg/mL
Compound: CC(=O)NCn1cc(-c2ccc(-c3c(C)noc3C)cc2)c(=O)o1

MIC (Haemophilus influenzae): 64 µg/mL (≈ 181 µM)
MIC (Staphylococcus aureus [15]): 32 µg/mL
Compound: CC(=O)NCn1cc(-c2ccc(-c3cncc(C(=O)O)c3)cc2)c(=O)o1
